Where two headings read alike, the source gives them in different places.

The subject of one series is HeLa CD4 LTR β-gal cells. The series can be described thus: Compound toxicity in attachment assay (MTS dye reduction, sister plates). In kind it is cell-based. Particulars: read-out: TC50 (the source's name). The method, then: At assay termination the assay plates were stained with the soluble tetrazolium-based dye MTS (CellTiter96® Reagent Promega) to determine cell viability and quantify compound toxicity. MTS is metabolized by the mitochondria enzymes of metabolically active cells to a soluble formazan product, allowing the rapid quantitative analysis cell viability and compound cytotoxicity. […] At termination of the assay 20 μL of MTS reagent was added per well and incubated for 4 h at 37° C. Adhesive plate sealers were used in place of the lids, the sealed plate was inverted several times to mix the soluble formazan product and the plate was read spectrophotometrically at 490 nm with a Molecular Devices Vmax plate reader.
The attachment assay was performed with the HeLa CD4 LTR , β-gal cells available from the AIDS Research and Reference Reagent Repository. […] HeLa CD4 LTR β-gal cells express cell surface CD4 and contain an LTR β-galactosidase reporter construct. Upon infection either the Tat protein incorporated into the virion or new Tat produced following virus integration and transcription trans-activates the LTR β-gal reporter, leading to expression of the β-galactosidase enzyme. HeLa CD4 LTR β-gal cells are routinely cultured with the required selection antibiotics and screened for mycoplasma contamination. Twenty-four h prior to initiation of the assay cells were trypsinized, counted and 1×10^4 cells placed in a 0.2 cm well in media without selection antibiotics. Media was removed at 24 h and compound in media placed on the cells and incubated for 15 to 30 min at 37° C. A known titer of virus was then added to the wells and the incubation continued for 1 h. At the end of the incubation the wells were washed 6 times with media and the culture continued for 48 h. At 48 h the wells were washed one time with PBS and β-galactosidase enzyme expression determined by chemiluminescence per manufacturers instructions (Tropix Gal-screen™, Tropix, Bedford, Mass.). Compound toxicity was monitored on sister plates using MTS dye reduction.
(Tetrazolium assays rely on reduction of a dye to a coloured formazan, in cell work by metabolically active cells.)

A further series relates to HIV-1. The series can be described thus: HeLa CD4 LTR β-gal/HL2/3 HIV-1 fusion assay. Particulars: fusion assay. It is filed as cell-based. The text has this:
This assay uses the HeLa CD4 LTR β-gal and HL2-3 cells available from the AIDS Research and Reference Reagent Repository. The HL2/3 are derived from HeLa cells and engineered to express HIV gp120 on their cell surface and Tat protein in their cytoplasma. Thus following gp 120/CD4/coreceptor-mediated fusion; cytoplasmic mixing results in the HL2/3 cell-derived Tat trans-activation of the β-galactosidase reporter. […] Twenty-four h prior to initiation of the assay cells were trypsinized, counted and 5×10^3 cells placed in a 0.2 cm well in media without selection antibiotics. To initiate the fusion assay HeLa CD4 LTR β-gal (5×10^3 cells per 0.2 cm well) were incubated with compound for 1 h at 37° C. HL2/3 cells (5×10^3) were added to the 0.2 cm well and the incubation continued for 48 h. At 48 h the wells were washed 1 time with PBS and β-galactosidase enzyme expression determined by chemiluminescence per manufacturers instructions (Tropix Gal-screen™, Tropix, Bedford, Mass.). Compound toxicity was monitored on sister plates using MTS dye reduction.

On to `CC(C)=CCCC1(C)CCc2c(O)cc(C(C)(C)CCCC(C)C)cc2O1` (stereo not shown) [IG-08, 3,4-Dihydro-2-methyl-2-(4-methyl-3-pentenyl)-7-(1,1,5-trimethylhexyl)-2H-1-benzopyran-5-ol], for which the CC50 in the series on HeLa CD4 LTR β-gal cells (Experiment 1, pretreat 0 h) is above 50 µM; with HeLa CD4 LTR β-gal cells (Experiment 1, pretreat 4 h), above 50 µM; in the series on HeLa CD4 LTR β-gal cells (Experiment 1, pretreat 24 h), above 50 µM; in the series on HeLa CD4 LTR β-gal cells (Experiment 2, pretreat 0 h), above 50 µM; with HeLa CD4 LTR β-gal cells (Experiment 2, pretreat 4 h), 29 µM; with HeLa CD4 LTR β-gal cells (Experiment 2, pretreat 24 h), 12.2 µM.
On to `C=C(C)[C@@H]1CCC(C)=C[C@H]1c1c(O)cc(CCCCC)cc1O` [Cannabidiol, reference compound], for which, in the series on HIV-1, the “Comments: suppression of β-galactosidase activity” value is on record as “Suppression of β-galactosidase”.

For the origin of these results see patent US20040242870A1, “Antiviral methods and compounds” (priority 2000, published 2004).
